Measured values as given in patent US9499511B2, “N-substituted hydroxylamine derivatives with carbon-based leaving groups” (The Johns Hopkins University, priority 2011, dated 2016).
Where two headings read alike, the source gives them in different places.

Experiments:
[1] = pKa of carbanion byproduct (concentration of b / b-H+ as a function of pH, UV-Vis); assay type: physicochemical
Source text: FIG. 2A and FIG. 2B show a graph plotting the concentration of 4b, 4b-H^+ (FIG. 2A) and 6b, 6b-H^+ (FIG. 2B) as a function of pH. In FIG. 2A, the squares represent 4b-H^+ (λmax=298 nm), and the circles represent carbanion 4b (λmax=261 nm). In FIG. 2B, the squares represent 6b-H^+ (λmax=270 nm), where the last three data points were omitted due to spectral overlap, and the circles represent carbanion 6b (λmax=253 nm).
NMR spectra were obtained on a Bruker Avance 400 MHz FT-NMR spectrometer. All chemical shifts are reported in parts per million (ppm) relative to residual CHCl3 (7.26 ppm for ^1H, 77.23 ppm for ^13C), residual DMSO (2.50 ppm for ^1H, 39.52 for ^13C), or residual H2O (4.8 ppm for ^1H). High-resolution mass spectra were obtained on a VG Analytical VG70SE magnetic sector mass spectrometer operating in fast atom bombardment (FAB) mode. Ultraviolet-Visible (UV-Vis) absorption spectra were obtained using a Hewlett Packard 8453 diode array spectrometer. Phosphate-buffered saline (PBS) solutions (0.1 M) were prepared with 140 mM NaCl and 3 mM KCl, with 100 μM diethylenetriaminepentaacetic acid (DTPA), adjusted to pH 7.4. Buffered solutions (0.1 M) for UV-Vis experiments were prepared from HCl/NaCl (pH 1.7), AcOH/AcONa (pH 3.0, 3.5, 4.0, 4.5, 5.0, 5.5), or NaPO3H2/Na2PO3H (pH 6.0, 6.5, 7.0, 8.0, 9.0, 9.5, 9.8, 10.0, 10.5, 10.6).

[2] = N2O headspace analysis (GC) of HNO production, relative to Angeli's salt; assay type: physicochemical; details: for HNO / N2O production (in words): decomposition at pH 7.4; for % HNO: donor 0.1 mM, 37° C., PBS pH 7.4, yield relative to Angeli's salt by N2O headspace analysis, SEM ±5%, n = 3
Protocol: Nitrous oxide is produced via the dimerization and dehydration of HNO, and is the most common marker for HNO production (Fukuto, J. M. et al., Chem. Res. Toxicol. 2005, 18, 790-801).
Gas chromatography was performed on a Varian CP-3800 instrument equipped with a 1041 manual injector, electron capture detector, and a 25 m 5 Å molecular sieve capillary column. Grade 5.0 nitrogen was used as both the carrier (8 mL/min) and the make-up (22 mL/min) gas. The injector oven and the detector oven were kept at 200° C. and 300° C., respectively. All nitrous oxide analyses were performed with the column oven held constant at 150° C. All gas injections were made using a 100 μL gastight syringe with a sample-lock. Samples were prepared in 15 mL amber headspace vials with volumes pre-measured for sample uniformity (actual vial volume ranges from 15.19-15.20 mL). Vials were charged with 5 mL of PBS buffer containing DTPA, purged with argon, and sealed with a rubber septum. The vials were equilibrated for at least 10 minutes at 37° C. in a dry block heater. A 10 mM stock solution of Angeli's salt (AS) was prepared in 10 mM sodium hydroxide, and HNO donors 1a-4a, 6a (10 mM) were prepared in acetonitrile or methanol and used immediately after preparation. From these stock solutions, 50 μL was introduced into individual thermally-equilibrated headspace vials using a gastight syringe, yielding final substrate concentrations of 0.1 mM. Substrates were then incubated long enough to ensure complete decomposition and equilibration of N2O with the headspace. The headspace (60 μL) was then sampled and injected five successive times using a gastight syringe with a sample lock. This was repeated for n≧3 vials per donor. The nitrous oxide yield was averaged and reported relative to the standard, Angeli's salt. For chemical trapping of HNO, glutathione (100 μL of 10 mM in PBS) was added prior to HNO donor addition to give a final glutathione concentration of 0.2 mM, and headspace sampling for N2O was analogously performed as stated above.

[3] = Decomposition kinetics monitored by UV-Vis spectroscopy; assay type: physicochemical; details: for pH near which the decomposition rate sharply increases: decomposition rate as a function of pH at 25° C., UV-Vis
Protocol: NMR spectra were obtained on a Bruker Avance 400 MHz FT-NMR spectrometer. […] High-resolution mass spectra were obtained on a VG Analytical VG70SE magnetic sector mass spectrometer operating in fast atom bombardment (FAB) mode. […] Phosphate-buffered saline (PBS) solutions (0.1 M) were prepared with 140 mM NaCl and 3 mM KCl, with 100 μM diethylenetriaminepentaacetic acid (DTPA), adjusted to pH 7.4.

[4] = Decomposition monitored by 1H NMR spectroscopy (carbanion yield, kinetics, half-life); assay type: physicochemical; details: 4a to 4b, 10% D2O, PBS, pH 7.4, room temperature
Source text: […] In each case, the bottom spectrum was collected at the start of the experiment, and the top spectrum after complete decomposition.
NMR spectra were obtained on a Bruker Avance 400 MHz FT-NMR spectrometer. […] High-resolution mass spectra were obtained on a VG Analytical VG70SE magnetic sector mass spectrometer operating in fast atom bombardment (FAB) mode. […]

Sprague-Dawley rats = test: Acute cardiovascular effects, pressure-volume (PV) loop analysis in anesthetized rats; assay type: in vivo, rat; details: IV infusion 100 μg/kg/min, 5 rats; for Mean Blood Pressure: baseline 124 (4a) / 138 (6a); for Stroke Volume / End Diastolic Pressure Volume Relationship / End Diastolic Pressure / Tau / Arterial Elastance / End Diastolic Volume / End Systolic Pressure Volume Relationship / Pre-Load Recruitable Stroke Work / Diastolic Blood Pressure / Stroke Work / End Systolic Pressure / Systolic Blood Pressure / Pressure Volume Area / Heart Rate / Left Ventricular +dP/dt / Left Ventricular −dP/dt: mean; for Stroke Volume: baseline 1 (4a) / 2.2 (6a); for End Diastolic Pressure Volume Relationship: baseline 1.7 (4a) / 1.8 (6a); for End Diastolic Pressure: baseline 4.7 (4a) / 4.4 (6a); for Tau: baseline 8.5 (4a) / 8.7 (6a); for Arterial Elastance: baseline 9.2 (4a) / 7.4 (6a); for End Diastolic Volume: baseline 14.6 (4a) / 19.2 (6a); for End Systolic Pressure Volume Relationship: baseline 28.1 (4a) / 23.7 (6a); for Pre-Load Recruitable Stroke Work: baseline 37.6 (4a) / 42.8 (6a); for Diastolic Blood Pressure: baseline 109 (4a) / 121 (6a); for Stroke Work: baseline 112 (4a) / 227 (6a); for End Systolic Pressure: baseline 134 (4a) / 141 (6a); for Systolic Blood Pressure: baseline 147 (4a) / 160 (6a); for Pressure Volume Area: baseline 343 (4a) / 590 (6a); for Heart Rate: baseline 365 (4a) / 340 (6a); for Left Ventricular +dP/dt: baseline 6392 (4a) / 7689 (6a); for Left Ventricular −dP/dt: baseline −7585 (4a) / −8257 (6a)
Protocol: The acute cardiovascular effects of compounds 4a and 6a, when administered intravenously to Sprague-Dawley rats at an infusion rate of 100 μg/kg/min, were examined by means of pressure-volume (PV) curve (loops) analysis. PV families/relationships were generated via pre-load variation and hemodynamic indices were compared to baseline values. Each test article was administered to 5 rats.
Rats were intraperitoneally (IP) anesthetized to effect with pentobarbital (˜50 mg/kg), shaved and positioned in dorsal recumbence, endotracheally intubated and ventilated […], ˜2.5 mL tidal volume with 95% O2/5% CO2) with an adjustable small animal ventilator (Harvard Apparatus). Anesthesia was maintained with a continuous pentobarbital infusion (to effect, ˜3 to 5 mg/kg/h, IV) until completion of the experiment via an indwelling catheter placed in a femoral vein. Subsequently, transthoracic needle electrodes forming a single-lead ECG were placed. For LV mechano-energetic evaluation, the right carotid artery was isolated, dissected free from the surrounding tissue, and cannulated with a 2F high-fidelity conductance/micromanometer catheter (Millar Instruments). This catheter was advanced retrograde across the aortic valve and into the LV chamber in order to simultaneously determine left-ventricular pressure and volume (via conductivity). […] Meanwhile, in order to record arterial pressures, a 2F high-fidelity micromanometer catheter (Millar Instruments) was inserted into a femoral artery and advanced towards the abdominal aorta. Finally, an in-dwelling catheter was placed into the jugular vein for administration of test article.
Following collection of baseline hemodynamic data, infusion of test article was initiated at an infusion rate of 100 μg/kg/min; at 10 μL/min. Pressure-volume analyses were performed again approximately 30 min and 45 min after the initiation of the dose.
The resulting left-ventricular pressure and volume data was analyzed offline (IOX/ECG Auto; EMKA Technologies) in order to generate relationships representing the contractile and energetic state of the myocardium. Systolic (SAP), diastolic (DAP), and mean (MAP) arterial pressures were collected. Left-ventricular mechanical and/or geometrical indices were obtained from the pressure (ESP, EDP, dP/dt max/min, time-constant of relaxation—tau [based on mono-exponential decay with non-zero asymptote]) and volume (ESV, EDV, SV) signal. In addition, the following measurements were derived from left-ventricular pressure-volume data (PV loops) generated during brief periods of preload reduction: • Pressure volume area (PVA) and stroke work (SW). • End-systolic (ESPVR) and end-diastolic (EDPVR) pressure volume relationships. • End systolic pressure and stroke volume relationship (Arterial Elastance, Ea).
Data are presented as means with standard errors (mean±SEM) in Table 6.

[5] = Decomposition kinetics monitored by UV-Vis spectroscopy; assay type: physicochemical; details: PBS, pH 7.4, Condition A: pH 7.4, 37° C., 0.1M PBS, 100 μL DTPA, air (UV/Vis)
[6] = comparison value; cited from earlier work

Molecule: 5-(acetyl-O-methoxyoxime)-N,N-dimethylbarbituric acid [Compound 4b]
- pKa of byproduct [1]: ca. 4.2

Molecule: CO/N=C(\C)C1(NO)C(=O)N(C)C(=O)N(C)C1=O [Compound 4a, 5-(N-hydroxylamine)-5-(acetyl-O-methoxyoxime)-N,N-dimethylbarbituric acid]
- HNO / N2O production (in words) [2]: high yield of N2O
- % HNO [2]: 110%
- half-life ([3]; buffer, pH 4, pH 4.0 and room temperature, read-out: half-life (converted)): ~1440 min
- half-life ([3]; buffer, pH 7.4, footnote c not given, pH 7.4, 37° C., read-out: t1/2): 0.7 min
- half-life ([3]; buffer, pH 7.4, pH 7.4 and 37° C., read-out: half-life (converted)): ~1 min
- pH near which the decomposition rate sharply increases [3]: ~8
- decomposition rate constant k (single exponential fit) [4]: 0.0024 s⁻¹
- Mean Blood Pressure (Sprague-Dawley rats): 71 mmHg
- Stroke Volume (Sprague-Dawley rats): 1.2 relative volume units
- End Diastolic Pressure Volume Relationship (Sprague-Dawley rats): 1.6
- End Diastolic Pressure (Sprague-Dawley rats): 3.4 mmHg
- Tau (Sprague-Dawley rats): 7.8 ms
- Arterial Elastance (Sprague-Dawley rats): 4.8
- End Diastolic Volume (Sprague-Dawley rats): 15 relative volume units
- End Systolic Pressure Volume Relationship (Sprague-Dawley rats): 34.1
- Pre-Load Recruitable Stroke Work (Sprague-Dawley rats): 54.3
- Diastolic Blood Pressure (Sprague-Dawley rats): 62 mmHg
- Stroke Work (Sprague-Dawley rats): 74 relative volume units × mmHg
- End Systolic Pressure (Sprague-Dawley rats): 71 mmHg
- Systolic Blood Pressure (Sprague-Dawley rats): 85 mmHg
- Pressure Volume Area (Sprague-Dawley rats): 151
- Heart Rate (Sprague-Dawley rats): 350 bp, m
- Left Ventricular +dP/dt (Sprague-Dawley rats): 3518 mmHg/s
- Left Ventricular −dP/dt (Sprague-Dawley rats): −4096 mmHg/s

Molecule: CO/N=C(\C)C1(NO)C(=O)N(c2ccccc2)N=C1C (centres unmarked) [Compound 6a, 4-(N-hydroxylamine)-4-(acetyl-O-methoxyoxime)-N-phenyl-5-methyl-pyrazolone]
- half-life [5]: 9.5 min
- HNO / N2O production (in words) [2]: efficiently produces HNO
- % HNO [2]: 110%
- half-life ([3]; AcOH/AcONa buffer, pH 4, pH 4.0, room temperature, read-out: half-life (converted)): ~1500 min
- half-life ([3]; PBS, pH 7.4, footnote c not given, pH 7.4, 37° C., read-out: t1/2): 9.5 min
- half-life ([3]; PBS, pH 7.4, pH 7.4 and 37° C., read-out: half-life (converted)): ~10 min
- pH near which the decomposition rate sharply increases [3]: ~10
- Mean Blood Pressure (Sprague-Dawley rats): 111 mmHg
- Stroke Volume (Sprague-Dawley rats): 2.4 relative volume units
- End Diastolic Pressure Volume Relationship (Sprague-Dawley rats): 1.5
- End Diastolic Pressure (Sprague-Dawley rats): 3.6 mmHg
- Tau (Sprague-Dawley rats): 8.6 ms
- Arterial Elastance (Sprague-Dawley rats): 5.7
- End Diastolic Volume (Sprague-Dawley rats): 20 relative volume units
- End Systolic Pressure Volume Relationship (Sprague-Dawley rats): 31
- Pre-Load Recruitable Stroke Work (Sprague-Dawley rats): 58.2
- Diastolic Blood Pressure (Sprague-Dawley rats): 97 mmHg
- Stroke Work (Sprague-Dawley rats): 185 relative volume units × mmHg
- End Systolic Pressure (Sprague-Dawley rats): 113 mmHg
- Systolic Blood Pressure (Sprague-Dawley rats): 130 mmHg
- Pressure Volume Area (Sprague-Dawley rats): 318
- Heart Rate (Sprague-Dawley rats): 332 bp, m
- Left Ventricular +dP/dt (Sprague-Dawley rats): 6044 mmHg/s
- Left Ventricular −dP/dt (Sprague-Dawley rats): −6549 mmHg/s

Molecule: CO/N=C(\C)C1(NO)C(=O)N(C)N=C1C (centres unmarked) [Compound 7a, 4-(N-hydroxylamine)-4-(acetyl-O-methoxyoxime)-N-methyl-5-methyl-pyrazolone]
- half-life [5]: 23 min

Molecule: CC1(C)OC(=O)CC(=O)O1 [Meldrum's acid]
- pKa [6]: 4.8

Molecule: CN1C(=O)CC(=O)N(C)C1=O [N,N-dimethyl barbituric acid]
- pKa [6]: 4.7

Molecule: CC1=NN(c2ccccc2)C(=O)C1 [edaravone]
- pKa [6]: 7
